# Laboratory results taken from patent US9822128B1, “Substituted spirooxindoles” (KING SAUD UNIVERSITY, priority 2017, dated 2017).
# Read-outs that look alike come from different tables or passages of the source.
# Columns and labels:
# HCT-116 = assay: MTT cytotoxicity assay, colon cancer cells; format: cell-based, human; details: for SI: Selectivity Index from IC50 normal (VERO-B) and IC50 cancer (HCT-116)
# Procedure: (§1) The cytotoxic activity of the compounds was tested against different mammalian cancer cells, prostate carcinoma cells (PC-3), hepatocellular carcinoma (HepG2) and colon cancer cells (HCT-116) and against African green monkey kidney cell line (Vero-B). The cell lines were obtained from American Type Culture Collection (ATCC). The cells were cultivated at 37° C. and 10% CO2 in DMEM (Lonza, 12-604F) medium supplemented with 10% fetal bovine serum (FBS, Lonza, Cat. No. 14-801E), 100 IU/ml penicillin and 100 μg/ml streptomycin (Lonza, 17-602E). Cisplatin (cis-diamineplatinum (II) dichloride) was used as a positive control and was obtained from Sigma then dissolved in 0.9% saline then stored as 8 mM stock solution at −20° C. The synthesized compounds were solubilized in DMSO and stored at −20° C. 0.5% crystal violet was prepared in Methanol and was used to stain the viable cells (Feoktistova, Geserick et al. 2016). Crystal violet binds to proteins and DNA in the adherent and viable cells so the stain is an indicator for the viability of the treated cells. The viability of the cells were quantified by using MTT reagent (3-(4,5-dimethylthiazol-2-yl)-2,5-diphenyl tetrazolium bromide), which measure the activity of mitochondrial dehydrogenase in the viable cells (Slater, Sawyer et al. 1963, Mosmann 1983).
# (§2) Cytotoxicity was further assayed as follows. The cells were seeded in 96-well plate as 5*10^4 cells/mL (100 μL/well). A serial dilutions of tested compounds or cisplatin (100, 30, 10, 3.3, 1.1 or 0.37 μM) was added after overnight incubation of the cells at 37° C. and 5% CO2. DMSO was used as a control (0.1%). The cells were incubated for 48 hrs. After that, 15 μl of MTT (5 mg/mL PBS) was added to each well and incubated for another 4 hours. The formazan crystals were solubilized by 100 μL acidified SDS solution (10% SDS/0.01 M HCl). The absorbance was measured after 14 hours of incubation at 37° C. and 5% CO2 at 570 nm by Biotech plate reader. Each experiment was repeated three times and standard deviation was calculated (±). IC50% was calculated as the concentration that cause 50% inhibition for cell growth. The growth of the cells were monitored and the images were acquired by Gx microscopes (GXMGXD202 Inverted Microscope) (10× Eyepiece) after staining with crystal violet.
# HepG2 = assay: MTT cytotoxicity assay, hepatocellular carcinoma cells; format: cell-based, human; details: for SI: Selectivity Index from IC50 normal (VERO-B) and IC50 cancer (HepG2)
# Procedure: as §1, §2
# PC-3 = assay: MTT cytotoxicity assay, prostate carcinoma cells; format: cell-based, human; details: for SI: Selectivity Index from IC50 normal (VERO-B) and IC50 cancer (PC-3)
# Procedure: as §1, §2
# Vero-B = assay: MTT cytotoxicity assay, normal kidney cell line; format: cell-based, African green monkey; details: read-out: VERO-B (IC50% μM)
# Procedure: as §1, §2
# [1] = Homo sapiens, HCT-116, MTT, 48 hrs incubation, read-out: HCT-116 (IC50% μM)
# [2] = Homo sapiens, HCT-116, MTT, 48 hrs incubation, read-out: HCT-116 (IC50% μg/ml)
# [3] = Homo sapiens, HepG2, MTT, 48 hrs incubation, read-out: HepG2 (IC50% μM)
# [4] = Homo sapiens, HepG2, MTT, 48 hrs incubation, read-out: HepG2 (IC50% μg/ml)
# [5] = Chlorocebus sabaeus, Vero B, Table 1, MTT, 48 hrs incubation
# [6] = Homo sapiens, PC-3, MTT, 48 hrs incubation, read-out: PC-3 (IC50% μM)
# [7] = Homo sapiens, PC-3, MTT, 48 hrs incubation, read-out: PC-3 (IC50% μg/ml)
# [8] = Homo sapiens, HCT-116, 48 h, read-out: HCT-116 (IC50% μM), MTT, 48 hrs incubation
# [9] = Homo sapiens, HCT-116, 48 h, read-out: HCT-116 (IC50% μg/ml), MTT, 48 hrs incubation
# [10] = Chlorocebus sabaeus, Vero B, 48 h
# [11] = read-out: HCT-116 (IC50% μM), MTT, 48 hrs incubation
Structure (SMILES),SI (HCT-116),SI (HepG2),SI (PC-3),IC50 (HCT-116; [1]),IC50 (HCT-116; [2]),IC50 (HepG2; [3]),IC50 (HepG2; [4]),IC50 (Vero-B; [5]),IC50 (PC-3; [6]),IC50 (PC-3; [7]),also measured
"N.N.[Cl][Pt][Cl] [Cisplatin, cis-diamineplatinum (II) dichloride, reference compound]",0.3968,0.9091,1,,,,,,,,"HCT-116 (IC50% μg/ml) (HCT-116; MTT, 48 hrs incubation): 3.8 µg/mL; IC50 (HCT-116; MTT, 48 hrs incubation, read-out: HCT-116 (IC50% μM)): 12.6 ± 2 µM; HepG2 (IC50% μg/ml) (HepG2; MTT, 48 hrs incubation): 1.7 µg/mL; IC50 (HepG2; MTT, 48 hrs incubation, read-out: HepG2 (IC50% μM)): 5.5 ± 1 µM; PC-3 (IC50% μg/ml) (PC-3; MTT, 48 hrs incubation): 1.5 µg/mL; IC50 (PC-3; MTT, 48 hrs incubation, read-out: PC-3 (IC50% μM)): 5 ± 0.5 µM; IC50 (Vero-B; Table 1, MTT, 48 hrs incubation): 5 µM; IC50 (Vero-B; Table 2, MTT, 48 hrs incubation): 5 µM; IC50 (Vero-B; Table 3, MTT, 48 hrs incubation): 5 µM"
"Cc1ccc(/C=C/C(=O)[C@H]2[C@H](c3ccc(C)cc3)[C@H]3CSCN3[C@]23C(=O)Nc2ccccc23)cc1 [Compound 4b, (3R,6′S,7′R,7a′S)-7′-(p-tolyl)-6′-((E)-3-(p-tolyl)acryloyl)-1′,6′,7′,7a′-tetrahydro-3′H-spiro[indoline-3,5′-pyrrolo[1,2-c]thiazol]-2-one]",1.475,3.305,,8 ± 1.2 µM,3.8 µg/mL,3.57 ± 0.5 µM,1.7 µg/mL,11.8 µM,,,
"O=C(/C=C/c1ccc(Cl)cc1)[C@H]1[C@H](c2ccc(Cl)cc2)[C@H]2CSCN2[C@]12C(=O)Nc1ccccc12 [Compound 4c, (3R,6′S,7′R,7a′S)-7′-(4-chlorophenyl)-6′-((E)-3-(4-chlorophenyl)acryloyl)-1′,6′,7′,7a′-tetrahydro-3′H-spiro[indoline-3,5′-pyrrolo[1,2-c]thiazol]-2-one]",,3.5,2.593,3 ± 0.5 µM,1.6 µg/mL,2 ± 0.5 µM,1 µg/mL,7 µM,2.7 ± 0.4 µM,1.4 µg/mL,
"O=C(/C=C/c1c(Cl)cccc1Cl)[C@H]1[C@H](c2c(Cl)cccc2Cl)[C@H]2CSCN2[C@]12C(=O)Nc1ccccc12 [Compound 4e, (3R,6′S,7′R,7a′S)-7′-(2,6-dichlorophenyl)-6′-((E)-3-(2,6-dichlorophenyl)acryloyl)-1′,6′,7′,7a′-tetrahydro-3′H-spiro[indoline-3,5′-pyrrolo[1,2-c]thiazol]-2-one]",1,3,,3 ± 0.3 µM,1.8 µg/mL,1 ± 0.3 µM,0.6 µg/mL,3 µM,,,
"O=C(/C=C/c1ccc(Br)cc1)[C@H]1[C@H](c2ccc(Br)cc2)[C@H]2CSCN2[C@]12C(=O)Nc1ccccc12 [Compound 4f, (3R,6′S,7′R,7a′S)-7′-(4-bromophenyl)-6′-((E)-3-(4-bromophenyl)acryloyl)-1′,6′,7′,7a′-tetrahydro-3′H-spiro[indoline-3,5′-pyrrolo[1,2-c]thiazol]-2-one]",1,3.75,,3 ± 0.5 µM,1.8 µg/mL,0.8 ± 0.1 µM,0.5 µg/mL,3 µM,,,
O=C(/C=C/c1cccc([N+](=O)[O-])c1)[C@H]1[C@H](c2cccc([N+](=O)[O-])c2)[C@H]2CSCN2[C@]12C(=O)Nc1ccccc12 [Compound 4g],1,,,,,,,,,,IC50 (HCT-116; [8]): 2.5 ± 0.2 µM; IC50 (HCT-116; [9]): 1.4 µg/mL; IC50 (Vero-B; [10]): 2.5 µM
"COc1ccc(/C=C/C(=O)[C@H]2[C@H](c3ccc(OC)cc3)[C@H]3CSCN3[C@]23C(=O)Nc2ccccc23)cc1 [Compound 4h, (3R,6′S,7′R,7a′S)-7′-(4-methoxyphenyl)-6′-((E)-3-(4-methoxyphenyl)acryloyl)-1′,6′,7′,7a′-tetrahydro-3′H-spiro[indoline-3,5′-pyrrolo[1,2-c]thiazol]-2-one]",1.071,3.333,,7 ± 0.9 µM,3.6 µg/mL,2.25 ± 0.2 µM,1.1 µg/mL,7.5 µM,,,
"O=C(/C=C/c1ccc2ccccc2c1)[C@H]1[C@H](c2ccc3ccccc3c2)[C@H]2CSCN2[C@]12C(=O)Nc1ccccc12 [Compound 4i, (3R,6′S,7′R,7a′S)-7′-(naphthalen-2-yl)-6′-((E)-3-(naphthalen-2-yl)acryloyl)-1′,6′,7′,7a′-tetrahydro-3′H-spiro[indoline-3,5′-pyrrolo[1,2-c]thiazol]-2-one]",0.875,2.917,2.414,8 ± 0.3 µM,4.4 µg/mL,2.4 ± 1 µM,1.3 µg/mL,7 µM,2.9 ± 0.2 µM,1.6 µg/mL,
"O=C(/C=C/c1cccs1)[C@H]1[C@H](c2cccs2)[C@H]2CSCN2[C@]12C(=O)Nc1ccccc12 [Compound 4j, (3R,6′S,7′S,7a′S)-7′-(thiophen-2-yl)-6′-((E)-3-(thiophen-2-yl)acryloyl)-1′,6′,7′,7a′-tetrahydro-3′H-spiro[indoline-3,5′-pyrrolo[1,2-c]thiazol]-2-one]",1.241,,,,,,,,,,IC50 (HCT-116; [8]): ≥ 10 µM; IC50 (HCT-116; [9]): 6.7 µg/mL; IC50 (HCT-116; [11]): 14.5 ± 1.5 µM; IC50 (Vero-B; [10]): 18 µM
"O=C(/C=C/c1ccco1)[C@H]1[C@H](c2ccco2)[C@H]2CSCN2[C@]12C(=O)Nc1ccccc12 [Compound 4k, (3R,6′S,7′S,7a′S)-7′-(furan-2-yl)-6′-((E)-3-(furan-2-yl)acryloyl)-1′,6′,7′,7a′-tetrahydro-3′H-spiro[indoline-3,5′-pyrrolo[1,2-c]thiazol]-2-one]",1.316,,,,,,,,,,IC50 (HCT-116; [8]): ≥ 10 µM; IC50 (HCT-116; [9]): 10.1 µg/mL; IC50 (HCT-116; [11]): 19 ± 2 µM; IC50 (Vero-B; [10]): 25 µM
"O=C(/C=C/c1cccc(Br)c1)[C@H]1[C@H](c2cccc(Br)c2)[C@H]2CSCN2[C@]12C(=O)Nc1ccccc12 [Compound 4l, (3R,6′S,7′R,7a′S)-7′-(3-bromophenyl)-6′-((E)-3-(3-bromophenyl)acryloyl)-1′,6′,7′,7a′-tetrahydro-3′H-spiro[indoline-3,5′-pyrrolo[1,2-c]thiazol]-2-one]",1.911,3.333,2,1.57 ± 0.3 µM,0.95 µg/mL,0.9 ± 0.1 µM,0.5 µg/mL,3 µM,1.5 ± 0.5 µM,0.9 µg/mL,
"O=C(/C=C/c1ccc(F)cc1)[C@H]1[C@H](c2ccc(F)cc2)[C@H]2CSCN2[C@]12C(=O)Nc1ccccc12 [Compound 4m, (3R,6′S,7′R,7a′S)-7′-(4-fluorophenyl)-6′-((E)-3-(4-fluorophenyl)acryloyl)-1′,6′,7′,7a′-tetrahydro-3′H-spiro[indoline-3,5′-pyrrolo[1,2-c]thiazol]-2-one]",1.2,2.5,2.4,5 ± 0.3 µM,2.4 µg/mL,2.4 ± 0.4 µM,1.2 µg/mL,6 µM,2.5 ± 0.2 µM,1.2 µg/mL,
"O=C(/C=C/c1ccc(C(F)(F)F)cc1)[C@H]1[C@H](c2ccc(C(F)(F)F)cc2)[C@H]2CSCN2[C@]12C(=O)Nc1ccccc12 [Compound 4n, (3R,6′S,7′R,7a′S)-7′-(4-(trifluoromethyl)phenyl)-6′-((E)-3-(4-(trifluoromethyl)phenyl)acryloyl)-1′,6′,7′,7a′-tetrahydro-3′H-spiro[indoline-3,5′-pyrrolo[1,2-c]thiazol]-2-one]",0.8621,2.778,2.5,2.9 ± 0.4 µM,1.7 µg/mL,0.9 ± 0.2 µM,0.5 µg/mL,2.5 µM,1 ± 0.2 µM,0.6 µg/mL,
